test system: T1R1/T1R3 umami receptor; assay: in silico modelling and in vitro screening for binding and activation of the umami receptor; format: cell-based, cat; settings: feline umami receptor
Description: In vitro screening was carried out in order to establish which amino acids bind and activate the umami receptor.
In vitro screening was carried out in order to establish which nucleotides bind and activate the umami receptor.

SMILES	binding to the feline umami receptor
N[C@@H](CCC(=O)O)C(=O)O [glutamate]	does not bind

same assay, conditions: non-human umami receptor; in silico modelling and in vitro assays

SMILES	ability to bind to and activate the umami receptor
C[C@H](N)C(=O)O [alanine]	able to bind to and activate the umami receptor to different extents
N[C@@H](Cc1ccccc1)C(=O)O [phenylalanine]	able to bind to and activate the umami receptor to different extents
CSCC[C@H](N)C(=O)O [methionine]	able to bind to and activate the umami receptor to different extents
CC(C)C[C@H](N)C(=O)O [leucine]	able to bind to and activate the umami receptor to different extents
N[C@@H](Cc1ccc(O)cc1)C(=O)O [tyrosine]	able to bind to and activate the umami receptor to different extents
N[C@@H](Cc1c[nH]c2ccccc12)C(=O)O [tryptophan]	able to bind to and activate the umami receptor to different extents
N[C@@H](CO)C(=O)O [serine]	able to bind to and activate the umami receptor to different extents
NCC(=O)O [glycine]	able to bind to and activate the umami receptor to different extents
NC(=O)C[C@H](N)C(=O)O [asparagine]	able to bind to and activate the umami receptor to different extents
N[C@@H](Cc1c[nH]cn1)C(=O)O [histidine]	able to bind to and activate the umami receptor to different extents
N[C@@H](CS)C(=O)O [cysteine]	able to bind to and activate the umami receptor to different extents

— patent US20150250210A1, “FLAVOUR ADDITIVES” (MARS INCORPORATED, priority 2012, published 2015)
